Measurements from PubChem BioAssay AID1963837 (Molecular Pharmacology Branch, DTP, NCI, 2024).

System: 843126-344-R-J1-PDC complex spheroid viability
Test: Anticancer human tumor 843126-344-R-J1-PDC patient-derived melanoma cell line growth inhibition [POLQ]
Settings: for IC50: curve of first compound; for viability, T/C: stronger effect = lower value
Summary of the method: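 PDC + HUVEC + MSC complex spheroids; POLQ inhibitors ± partner drugs; top conc. at/near clinical Cmax, else 10 microM (SN-38 1 microM), half-log dilutions; 37 degrees C, 5% CO2.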

[1] = second compound 0.0316 µM, first compound 0.0316 µM
[2] = second compound 0.0316 µM, first compound 0.1 µM
[3] = second compound 0.0316 µM, first compound 0.316 µM
[4] = second compound 0.0316 µM, first compound 1 µM
[5] = second compound 0.0316 µM, first compound 3.16 µM
[6] = second compound 0.0316 µM, first compound 10 µM
[7] = second compound 0.1 µM, first compound 0.0316 µM
[8] = second compound 0.1 µM, first compound 0.1 µM
[9] = second compound 0.1 µM, first compound 0.316 µM
[10] = second compound 0.1 µM, first compound 1 µM
[11] = second compound 0.1 µM, first compound 3.16 µM
[12] = second compound 0.1 µM, first compound 10 µM
[13] = second compound 0.316 µM, first compound 0.0316 µM
[14] = second compound 0.316 µM, first compound 0.1 µM
[15] = second compound 0.316 µM, first compound 0.316 µM
[16] = second compound 0.316 µM, first compound 1 µM
[17] = second compound 0.316 µM, first compound 3.16 µM
[18] = second compound 0.316 µM, first compound 10 µM
[19] = second compound 1 µM, first compound 0.0316 µM
[20] = second compound 1 µM, first compound 0.1 µM
[21] = second compound 1 µM, first compound 0.316 µM
[22] = second compound 1 µM, first compound 1 µM
[23] = second compound 1 µM, first compound 3.16 µM
[24] = second compound 1 µM, first compound 10 µM
[25] = second compound 3.16 µM, first compound 0.0316 µM
[26] = second compound 3.16 µM, first compound 0.1 µM
[27] = second compound 3.16 µM, first compound 0.316 µM
[28] = second compound 3.16 µM, first compound 1 µM
[29] = second compound 3.16 µM, first compound 3.16 µM
[30] = second compound 3.16 µM, first compound 10 µM
[31] = second compound 10 µM, first compound 0.0316 µM
[32] = second compound 10 µM, first compound 0.1 µM
[33] = second compound 10 µM, first compound 0.316 µM
[34] = second compound 10 µM, first compound 1 µM
[35] = second compound 10 µM, first compound 3.16 µM
[36] = second compound 10 µM, first compound 10 µM
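For viability, T/C in this document: spheroids exposed to drugs for seven days before readout.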

Q: For `CCc1cc2c(N3CCc4c(cc(Cn5ccnc5)cc4-c4cn(C)nc4C(F)(F)F)C3=O)ccnc2c(OC)n1` + COC1C(OC(N)=O)C(O)C(Oc2ccc3c(O)c(NC(=O)c4ccc(O)c(CC=C(C)C)c4)c(=O)oc3c2C)OC1(C)C, which IC50 (second compound 0.0316 µM) is on record?
A: > 10 µM

Q: And the IC50 (second compound 0.1 µM)?
A: 8.32 µM

Q: What about the IC50 (second compound 0.316 µM) of the same compound?
A: > 10 µM

Q: And the IC50 (second compound 1 µM)?
A: > 10 µM

Q: What about the IC50 (second compound 3.16 µM) of the same compound?
A: > 10 µM

Q: What about the IC50 (second compound 10 µM) of the same compound?
A: > 10 µM

Q: And the viability, T/C [1]?
A: 94.1%

Q: What about the viability, T/C [2] of the same compound?
A: 88.3%

Q: And the viability, T/C [3]?
A: 87.3%

Q: And the viability, T/C [4]?
A: 78.4%

Q: And the viability, T/C [5]?
A: 62.2%

Q: And the viability, T/C [6]?
A: 60.8%

Q: What about the viability, T/C [7] of the same compound?
A: 82%

Q: And the viability, T/C [8]?
A: 99.8%

Q: And the viability, T/C [9]?
A: 92.2%

Q: And the viability, T/C [10]?
A: 70.4%

Q: What about the viability, T/C [11] of the same compound?
A: 63%

Q: And the viability, T/C [12]?
A: 46.5%

Q: And the viability, T/C [13]?
A: 99.5%

Q: And the viability, T/C [14]?
A: 78%

Q: What about the viability, T/C [15] of the same compound?
A: 78%

Q: And the viability, T/C [16]?
A: 73.1%

Q: What about the viability, T/C [17] of the same compound?
A: 76.6%

Q: What about the viability, T/C [18] of the same compound?
A: 62%

Q: What about the viability, T/C [19] of the same compound?
A: 84.5%

Q: And the viability, T/C [20]?
A: 93.8%

Q: And the viability, T/C [21]?
A: 78.2%

Q: And the viability, T/C [22]?
A: 80.6%

Q: And the viability, T/C [23]?
A: 65%

Q: And the viability, T/C [24]?
A: 57.2%

Q: And the viability, T/C [25]?
A: 78.4%

Q: And the viability, T/C [26]?
A: 99.7%

Q: And the viability, T/C [27]?
A: 87.2%

Q: What about the viability, T/C [28] of the same compound?
A: 72.6%

Q: What about the viability, T/C [29] of the same compound?
A: 67.6%

Q: And the viability, T/C [30]?
A: 61%

Q: What about the viability, T/C [31] of the same compound?
A: 80.8%

Q: And the viability, T/C [32]?
A: 79.7%

Q: And the viability, T/C [33]?
A: 79.5%

Q: What about the viability, T/C [34] of the same compound?
A: 78.5%

Q: And the viability, T/C [35]?
A: 61.7%

Q: And the viability, T/C [36]?
A: 66.1%

Q: `Nc1ccn(C2OC(CO)C(O)C2(F)F)c(=O)n1` (centres undefined) + Cc1cccc(N(C)C(=O)C2C(O)CCN2c2nc(C)cc(C(F)(F)F)c2C#N)c1 was tested. Which IC50 (second compound 0.0316 µM) did it give?
A: < 0.0316 µM

Q: What about the IC50 (second compound 0.1 µM) of the same compound?
A: < 0.0316 µM

Q: What about the IC50 (second compound 0.316 µM) of the same compound?
A: < 0.0316 µM

Q: And the IC50 (second compound 1 µM)?
A: < 0.0316 µM

Q: What about the IC50 (second compound 3.16 µM) of the same compound?
A: < 0.0316 µM

Q: And the IC50 (second compound 10 µM)?
A: < 0.0316 µM

Q: What about the viability, T/C [1] of the same compound?
A: 47.1%

Q: And the viability, T/C [2]?
A: 50.2%

Q: What about the viability, T/C [3] of the same compound?
A: 30.6%

Q: And the viability, T/C [4]?
A: 45.5%

Q: What about the viability, T/C [5] of the same compound?
A: 42.4%

Q: And the viability, T/C [6]?
A: 43%

Q: What about the viability, T/C [7] of the same compound?
A: 48.9%

Q: What about the viability, T/C [8] of the same compound?
A: 44%

Q: What about the viability, T/C [9] of the same compound?
A: 40.9%

Q: What about the viability, T/C [10] of the same compound?
A: 51.4%

Q: And the viability, T/C [11]?
A: 44.5%

Q: And the viability, T/C [12]?
A: 32.9%

Q: And the viability, T/C [13]?
A: 42.3%

Q: What about the viability, T/C [14] of the same compound?
A: 45.2%

Q: What about the viability, T/C [15] of the same compound?
A: 37.4%

Q: And the viability, T/C [16]?
A: 44.8%

Q: And the viability, T/C [17]?
A: 43.2%

Q: And the viability, T/C [18]?
A: 38.3%

Q: What about the viability, T/C [19] of the same compound?
A: 37.9%

Q: And the viability, T/C [20]?
A: 44.5%

Q: What about the viability, T/C [21] of the same compound?
A: 37.6%

Q: And the viability, T/C [22]?
A: 47.7%

Q: What about the viability, T/C [23] of the same compound?
A: 35.9%

Q: What about the viability, T/C [24] of the same compound?
A: 41.5%

Q: And the viability, T/C [25]?
A: 38.7%

Q: And the viability, T/C [26]?
A: 43.6%

Q: And the viability, T/C [27]?
A: 44%

Q: What about the viability, T/C [28] of the same compound?
A: 49.3%

Q: And the viability, T/C [29]?
A: 34.9%

Q: And the viability, T/C [30]?
A: 36.6%

Q: And the viability, T/C [31]?
A: 40.6%

Q: What about the viability, T/C [32] of the same compound?
A: 41.6%

Q: And the viability, T/C [33]?
A: 40.7%

Q: What about the viability, T/C [34] of the same compound?
A: 45.1%

Q: What about the viability, T/C [35] of the same compound?
A: 43.5%

Q: What about the viability, T/C [36] of the same compound?
A: 37.8%
